Measurements taken from PMC4456386, “Ligand Recognition of the Major Birch Pollen Allergen Bet v 1 is Isoform Dependent” (PLoS ONE, 2015).
Where two headings read alike, the source gives them in different places.

Tests used:
Bet v 1a [1] = target: T1, Bet v 1a (Betula pendula, UniProt P15494); assay: 1H-15N HSQC NMR titration (chemical shift perturbation) of 15N-Bet v 1a; assay type: binding, Betula verrucosa; conditions: Bet v 1a
T1 construct: made in house
Protocol: (§1) All NMR experiments were performed at 298 K in 50 mM sodium phosphate buffer, 50 mM NaCl, pH 7.0, 10% deuterium oxide (^2H2O) with ^15N-uniformly labelled Bet v 1 isoforms using Bruker Avance 700 MHz and Avance 800 MHz spectrometers with cryogenically cooled triple-resonance probes equipped with pulsed field-gradient capabilities. NMR data were processed using NMRPipe and visualized with NMRViewJ [89]. Three-dimensional ^15N-edited NOESY (nuclear Overhauser enhancement spectroscopy, mixing times 120 ms) experiments to assign chemical shifts were obtained with 500 μM ^15N-labeled samples of Bet v 1 isoform d or m and yielded 91% of assigned residues for Bet v 1d and 89% for Bet v 1m. The sequence-specific assignments of the amide resonances of Bet v 1a are reported elsewhere.
(§2) Interaction of Q3OS with the Bet v 1 isoforms was measured by incubating 700 μM Q3OS with 50 μM of each ^15N-labeled Bet v 1 isoform in 50 mM sodium phosphate, 50 mM NaCl buffer, pH 7.0.
(§3) For titration experiments all other flavonoids were dissolved in deuterated DMSO, while glucose and galactose were dissolved in 50 mM sodium phosphate buffer, 50 mM NaCl, pH 7.0, 10% deuterium oxide and titrated stepwise to a final excess of up to 17-fold to protein samples (ca. 100 μM). […] CSPs for ligand binding were calculated based on Eq (2): […] (2) ΔδHN and ΔδN, chemical shift differences of amide proton and nitrogen resonances, respectively, in ppm.
(§4) K d values for flavonoid binding were determined with NMRViewJ [89]. All analysable amino acid residues that were unaffected by DMSO addition and showing CSPs > 0.08 ppm were fitted to a quadratic binding curve with default settings, and an average K d app was calculated (Table 1 and S1–S3 Tables). The CSPs of all residues showing CSPs > 0.04 ppm were mapped either on models of Bet v 1d and Bet v 1m or on the Bet v 1a structure (pdb code 1BV1, [29]).

Bet v 1m [2] = target: T2, Bet v 1m (Betula pendula, UniProt P43186); assay: 1H-15N HSQC NMR titration (chemical shift perturbation) of 15N-Bet v 1m; assay type: binding, Betula verrucosa; conditions: NMR, average of all analysable residues with CSPs > 0.08 ppm, ± standard deviation
T2 construct: made in house
Protocol: as §1, §2, §3, §4

Bet v 1d = target: T3, Bet v 1d (Betula pendula, UniProt P43177); assay: 1H-15N HSQC NMR titration (chemical shift perturbation) of 15N-Bet v 1d; assay type: binding, Betula verrucosa
T3 construct: made in house
Protocol: as §1, §2, §3, §4

[3] = test system: serum IgE binding to surface-coated Bet v 1a, Bet v 1d and Bet v 1m; assay: Indirect ELISA for IgE binding to Bet v 1 isoforms; design: species or system human
Excerpt: (§5) Fifteen sera of birch pollen-allergic subjects were collected, tested, and pooled according to the guideline of the European Medicines Agency (EMEA/CHMP/BWP/304831/2007). The serum pool is routinely used for batch-release testing of birch pollen-derived allergenic products at the Paul-Ehrlich-Institut. The same serum pool was used for both, ELISA and mediator release assays.
For IgE-ELISA experiments, Maxisorp plates (Nunc via Fisher Scientific) were coated overnight at room temperature with 50 ng/100 μl recombinant Bet v 1 isoforms a, d, or m with a 5-fold molar excess of quercetin-3-O-sophorose, rutin, quercetin, quercetin-3-O-glucoside, quercetin-3-O-galactoside, or sophorose, respectively, in phosphate-buffered saline (PBS). After blocking with PBS containing 2% bovine serum albumin (BSA) these plates and an uncoated control were incubated with a dilution series of a serum pool of birch-pollen allergic subjects for 1 h at room temperature with PBS containing 0.05% Tween 20 and 0.1% BSA. Allergen-specific human IgE was detected with a horseradish peroxidase-conjugated mouse anti-human IgE antibody (Clone B3102E8, Southern biotech via Biozol, Eching, Germany) diluted 1:1000. 3,3′,5,5′-tetramethylbenzidine (Roth, Karlsruhe) was used as substrate for horseradish peroxidase, and the absorbance at 450 nm was measured after stopping the reaction with 25% H2SO4.

[4] = test system: humanized rat basophil leukemia (RBL) cells; assay: β-Hexosaminidase release (mediator release) assay; assay type: cell-based
Protocol: as §5
The mediator release assay was performed according to an established protocol. […] After washing, cells were stimulated with serial dilutions of Bet v 1 isoforms a, d, or m in Tyrode's buffer containing […]. For complex formation, the Bet v 1 isoforms were incubated overnight with a 5-fold molar excess of Q3OS, rutin, quercetin, Q3OGlc, Q3OGal, or sophorose, respectively, before stimulating the cells. Degranulation was quantified by photometric measurement of β-hexosaminidase activity in the culture supernatants. The percentage of β-hexosaminidase activity relative to cells lysed with Triton X-100 (Sigma-Aldrich, Steinheim, Germany) was calculated and corrected for spontaneous release (sensitized cells without allergen).

[5] = UV/VIS absorption spectra of unbound flavonoids; assay type: physicochemical; conditions: pH 7.0
Protocol: All flavonoids and Bet v 1 isoforms were dissolved in 50 mM sodium phosphate, 50 mM NaCl, 10% (v/v) DMSO, pH 7.0, to a final concentration of 10 to 20 μM in 500 μl. Absorption spectra from 200–800 nm were recorded at 25°C in a 1 cm quartz cuvette (Hellma GmbH) using a 8453 UV-visible spectrophotometer (Agilent).

Bet v 1m [6] = target: T2, Bet v 1m; assay: 1H-15N HSQC NMR titration (chemical shift perturbation) of 15N-Bet v 1m; assay type: binding, Betula verrucosa; conditions: 1H-15N HSQC titration, up to 15-fold excess
Bet v 1a [7] = target: T1, Bet v 1a; conditions: Fluorescence, read-out: Dissociation constant Kd; cited from earlier work
[8] = 5-fold molar excess of ligand, isoforms a, d, m

T1 sequence (P15494 whole entry): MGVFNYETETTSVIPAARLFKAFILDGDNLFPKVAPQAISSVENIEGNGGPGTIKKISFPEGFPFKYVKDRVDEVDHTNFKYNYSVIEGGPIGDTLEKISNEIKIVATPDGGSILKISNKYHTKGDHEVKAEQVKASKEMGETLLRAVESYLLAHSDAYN
T3 sequence (P43177 whole entry): as the sequence (P15494 whole entry) above, with T8I, F31V, S58N, I92V, S113C, I114V, D126N counted along it
T2 sequence (P43186 whole entry): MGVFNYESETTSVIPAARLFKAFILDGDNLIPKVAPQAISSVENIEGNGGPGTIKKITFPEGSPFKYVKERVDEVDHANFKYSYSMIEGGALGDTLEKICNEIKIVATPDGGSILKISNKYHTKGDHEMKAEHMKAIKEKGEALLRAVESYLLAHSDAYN

Molecule	Kd per residue (Bet v 1a [1]; one value per residue with Δδnorm > 0.08 ppm (residue named left of the cell), Int. Ex. = intermediate exchange)	Kd (Bet v 1a [1]; NMR, average of all analysable residues with CSPs > 0.08 ppm, ± standard deviation, read-out: Dissociation constant Kd (averaged Kd app))	Dissociation constant Kd (averaged Kd app) (Bet v 1m [2])	binding to Bet v 1d (in words) (Bet v 1d; 1H-15N HSQC titration, up to 15-fold excess)	Dissociation constant Kd (averaged Kd app) (Bet v 1d; NMR, Bet v 1d, average of all analysable residues with CSPs > 0.08 ppm, ± standard deviation)	influence of ligand on IgE binding of Bet v 1 isoforms [3, 8]	influence of ligand on mediator release induced by Bet v 1 isoforms [4, 8]	Absorption maxima, Flavonoid [5]	binding to Bet v 1m (in words) (Bet v 1m [6])	Kd (Bet v 1a [7])	IgE-binding capacity ([3]; absence of ligands, pool serum of birch pollen-allergic subjects)	shift to higher concentration for half-maximum release of β-hexosaminidase in comparison to the other isoforms ([4]; absence of ligands)
O=c1c(O[C@@H]2O[C@H](CO)[C@@H](O)[C@H](O)[C@H]2O[C@@H]2O[C@H](CO)[C@@H](O)[C@H](O)[C@H]2O)c(-c2ccc(O)c(O)c2)oc2cc(O)cc(O)c12 [Q3OS, quercetin-3-O-sophoroside]	Int./Slow Ex.	< 1000 nM	No binding	did not produce significant CSPs	No binding	does not significantly influence	does not significantly influence	358 nm	did not lead to significant CSPs	570 nM	–	–
Bet v 1d: recombinant hypoallergenic isoform of the major birch pollen allergen Bet v 1 (UniProt P43177) (protein, UniProt P43177 2-160, looked up) Major pollen allergen Bet v …: GVFNYEIETTSVIPAARLFKAFILDGDNLVPKVAPQAISSVENIEGNGGPGTIKKINFPEGFPFKYVKDRVDEVDHTNFKYNYSVIEGGPVGDTLEKISNEIKIVATPDGGCVLKISNKYHTKGNHEVKAEQVKASKEMGETLLRAVESYLLAHSDAYN	–	–	–	–	–	–	–	–	–	–	only marginal	approximately 10 fold
